Type in all cases: cell-based
The target in experiment [1] is T1, Kv10.1 (Homo sapiens, UniProt O95259).
T1 construct: gene KCNH1
T1 sequence (O95259 1-989): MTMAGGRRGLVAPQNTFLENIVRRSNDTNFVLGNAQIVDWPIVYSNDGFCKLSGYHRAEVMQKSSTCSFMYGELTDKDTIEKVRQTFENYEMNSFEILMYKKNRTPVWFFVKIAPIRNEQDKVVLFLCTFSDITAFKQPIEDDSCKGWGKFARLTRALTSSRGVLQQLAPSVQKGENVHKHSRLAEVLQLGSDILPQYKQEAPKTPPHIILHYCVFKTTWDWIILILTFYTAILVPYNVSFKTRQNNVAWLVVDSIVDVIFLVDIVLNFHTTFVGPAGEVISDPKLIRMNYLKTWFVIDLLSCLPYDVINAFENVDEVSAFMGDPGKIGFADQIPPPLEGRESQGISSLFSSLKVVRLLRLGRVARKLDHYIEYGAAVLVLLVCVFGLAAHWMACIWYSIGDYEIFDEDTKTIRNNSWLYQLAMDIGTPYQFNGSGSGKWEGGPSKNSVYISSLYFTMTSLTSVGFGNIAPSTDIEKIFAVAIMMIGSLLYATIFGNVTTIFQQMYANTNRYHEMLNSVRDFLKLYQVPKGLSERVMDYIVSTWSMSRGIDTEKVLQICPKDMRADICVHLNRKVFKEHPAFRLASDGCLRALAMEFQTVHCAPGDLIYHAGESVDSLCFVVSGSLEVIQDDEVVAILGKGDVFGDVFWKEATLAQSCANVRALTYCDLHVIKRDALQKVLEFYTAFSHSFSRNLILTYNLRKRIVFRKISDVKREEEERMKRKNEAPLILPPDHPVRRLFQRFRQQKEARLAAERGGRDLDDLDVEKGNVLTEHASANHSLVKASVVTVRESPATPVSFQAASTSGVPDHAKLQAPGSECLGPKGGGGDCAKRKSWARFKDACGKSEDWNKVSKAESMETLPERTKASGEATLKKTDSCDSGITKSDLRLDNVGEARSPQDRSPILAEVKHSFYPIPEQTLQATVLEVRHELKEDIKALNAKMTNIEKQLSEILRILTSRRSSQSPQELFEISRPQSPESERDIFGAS
Description: whole-cell voltage-clamp of HEK293 cells stably expressing human Kv10.[…] (activator); no effect in HEK-WT.

For experiment [2], the target named is T1, Kv10.1. Nature of the experiment: whole-cell voltage-clamp of HEK293 cells stably expressing human Kv10.[…].
Experiment [3] has as its target T1, Kv10.1. Description: FLIPR membrane potential assay in HEK-Kv10.[…] cells, […]. The conditions noted are these: read-out: % decrease at 100 μM.
In experiment [4] the target is T1, Kv10.1. The experiment is described as above. The conditions noted are these: read-out: % decrease at 50 μM.

This is an account of results in paper PMC10404814, “Fluorescent membrane potential assay for drug screening on Kv10.1 channel: identification of BL-1249 as a channel activator” (Frontiers in Pharmacology, 2023).

As a reminder, the EC50 is the midpoint of the concentration-response curve. Low readings indicate a more potent agent, high ones a less potent agent. For `c1ccc(-c2nnn[nH]2)c(Nc2cccc3c2CCCC3)c1` [BL, BL-1249], at Kv10.1 [1], the EC50 was found to be 36.5 µM.

A word on the IC50: it is the concentration needed to halve the response being measured. Take `Clc1ccc(COC(Cn2ccnc2)c2ccc(Cl)cc2Cl)c(Cl)c1` (stereo not drawn) [MN, miconazole nitrate]: the IC50 on Kv10.1 [2] turned out to be 23.6 ± 5 µM. Regarding `CN(C)CCC=C1c2ccccc2CCc2ccccc21` [amitriptyline], the inhibition at 100 µM at Kv10.1 [3] was 25.5%. Turning to `COc1ccc(CCN2CCC(Nc3nc4ccccc4n3Cc3ccc(F)cc3)CC2)cc1` [astemizole], on Kv10.1 [4], the inhibition at 50 µM amounted to 34.8%. In turn, `CNCCC(Oc1ccc(C(F)(F)F)cc1)c1ccccc1` (stereo not drawn) [fluoxetine] had an IC50 against Kv10.1 [2] of 11.2 ± 6.2 µM. Turning to `CN(C)C(=O)C(CCN1CCC(O)(c2ccc(Cl)cc2)CC1)(c1ccccc1)c1ccccc1` [loperamide], the inhibition at 100 µM at Kv10.1 [3] was determined as 31.9%.
